Like-named read-outs stand apart in the source and are kept apart here.
How the values were obtained:
[1] = tested on: sympathetic nerve hepatic branches; assay: efferent neural activity of the sympathetic nerve hepatic branches after intravenous carnosine; format: in vivo, rat; settings: 100 ng intravenous
Description: (§1) According to the method of Niijima (Neurobiology 3:299-307, 1995), the effect of carnosine on the autonomic nerve activity was investigated. Wistar male rats, weighing about 300 g, that had been kept in an environment of room temperature (24° C.) and free access to the feed were fasted (with free access to water) 12 hours before the start of the experiment. Rats were subjected to abdominal section under urethane anesthesia (1 g/kg body weight, intraperitoneal administration), neurofilaments were isolated from central cut ends of a sympathetic nerve branch or a vagal nerve branch, and the efferent neural activity was recorded via an AC amplifier. The neural activity was observed using an oscilloscope and was recorded into magnetic tape. At the same time, the time course of the neural activity was recorded with a pen-type recorder via a rate meter with a reset time set at 5 seconds.
(§2) Carnosine (100 ng or 1,000 ng dissolved in 0.1 ml physiological saline) was intravenously administered. As the control, physiological saline (0.1 ml) was alone administered intravenously.
(§3) The effect of carnosine administration was calculated as the neural activity count (%) after carnosine administration relative to neural activity count (mean value of 10 activity counts during 5 minutes) before administration set at 100. Five rats were used for each experiment. Data were tested with ANOVA (p<0.05) and were expressed as mean +/− standard error.

[2] = cited from earlier work
[3] = tested on: carnosine-degrading enzyme; assay: carnosine-degrading enzyme activity in the plasma of rats; format: in vitro ADME
[4] = tested on: vagal nerve celiac branches; assay: efferent neural activity of the vagal nerve celiac branches after intravenous carnosine; format: in vivo, rat; settings: 100 ng intravenous
Description: as §1, §2, §3
In order to study the effect on the neural activity of the vagal nerve, the efferent neural activity of the vagal nerve celiac branches was recorded.

[5] = molecular target: T1, carnosine-degrading enzyme (Homo sapiens, UniProt Q96KN2); settings: cited from earlier work
T1 construct: host or cells: human blood
T1 sequence (Q96KN2 27-507 limits assumed): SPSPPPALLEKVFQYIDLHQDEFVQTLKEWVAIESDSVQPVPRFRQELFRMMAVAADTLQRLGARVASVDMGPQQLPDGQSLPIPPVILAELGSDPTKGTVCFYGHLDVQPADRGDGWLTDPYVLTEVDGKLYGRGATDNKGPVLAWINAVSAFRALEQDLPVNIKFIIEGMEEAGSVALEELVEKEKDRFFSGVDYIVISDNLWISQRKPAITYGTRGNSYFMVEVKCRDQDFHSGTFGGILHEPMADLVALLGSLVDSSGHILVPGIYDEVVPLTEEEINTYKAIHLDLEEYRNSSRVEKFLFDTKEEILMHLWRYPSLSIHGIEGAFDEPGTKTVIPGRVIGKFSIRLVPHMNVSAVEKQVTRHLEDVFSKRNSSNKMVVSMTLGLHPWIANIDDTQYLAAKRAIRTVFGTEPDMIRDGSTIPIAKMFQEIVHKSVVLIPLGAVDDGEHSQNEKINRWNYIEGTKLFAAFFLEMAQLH

[6] = tested on: autonomic nervous system in humans; assay: autonomic nerve activity in humans by ECG R-R interval power spectral analysis; format: in vivo, human; settings: for mean promotion ratio of the overall autonomic nerve activity / mean promotion ratio of the parasympathetic nerve activity: responding subjects
Description: The resting ECG of the subjects was measured for 5 minutes, and ECG was measured for 5 minutes at 30 minutes and 60 minutes after drinking the test sample, respectively. In order to avoid influences by changes in respiration, ECG was measured when the subjects were forced to respire at 15 respirations per minute. The intervals between R-waves (R-R intervals) of the ECG were determined, and were subjected to a power spectral analysis according to the program prepared by Moritani et al. (J. Sport Med. Sci. 7:31-39, 1993). For cycle components, in conformity to the classification criteria of the Cardiology society in Europe and the USA (Circulation 93:1043-1065, 1996), heart rate variation was divided into the low frequency (0.03-0.15 Hz) and the high frequency (0.15-0.4 Hz).
Carnosine was weighed out on a chartula at 0.04 mg, 0.2 mg, 1 mg, 5 mg, and 25 mg/capita. For 0.2 mg, one mg of a 1:4 mixture of carnosine and starch powder (⅕ dilution) was weighed out. For 0.04 mg, one mg of a 1:4 mixture of carnosine and starch powder that further mixed with the starch powder at 1:4 ( 1/25 dilution) was weighed out. Carnosine was taken by licking the one weighed out on chartula.
There were 8 subjects, 21-51 years old (33.0 +/− 11.95 years old) and weighing 54-73.5 kg (64.3 +/− 7.01 kg), and among them, the experiments of the 0.04 mg and the 0.2 mg were performed on six subjects, the experiments of the 1 mg and the 5 mg were performed on 8 subjects, and the experiment of the 25 mg was performed on 5 subjects.

[7] = tested on: sympathetic nerve renal branches; assay: efferent neural activity of the sympathetic nerve renal branches after intravenous carnosine; format: in vivo, rat; settings: 1,000 ng intravenous
Description: as §1, §2, §3

[8] = 30 minutes after administration
[9] = 60 minutes after administration
[10] = 90 minutes after administration
[11] = 0.04 mg oral ingestion, the one responding subject

carnosine-degrading enzyme activity [3]: 0.01 to 0.04 µmol/h/mL
SMILES: NCCC(=O)N[C@@H](Cc1cnc[nH]1)C(=O)O [carnosine, β-alanyl-L-histidine]
suppression rate of efferent neural activity of the sympathetic nerve hepatic branches [1, 8]: 20.1% | suppression rate of efferent neural activity of the sympathetic nerve hepatic branches [1, 9]: 25.9% | suppression rate of efferent neural activity of the sympathetic nerve hepatic branches [1, 10]: 32.0% | absorptivity relative to carnosine alone ([2]; administered to the jejunum of mice in combination with L-alanine): more than two-fold higher | absorptivity relative to carnosine alone ([2]; administered to the jejunum of mice with β-alanine): more than tripled | oral absorptivity ([2]; mice): 30-70% | promotion rate of efferent neural activity of the vagal nerve celiac branches [4, 8]: 15.4% | promotion rate of efferent neural activity of the vagal nerve celiac branches [4, 9]: 28.6% | promotion rate of efferent neural activity of the vagal nerve celiac branches [4, 10]: 48.7% | activity of a carnosine-degrading enzyme in the blood [5]: 2 to 7 µmol/h/mL | ratio of those who exhibited promotion (more than 200% of the previous value of the parasympathetic nerve activity) ([6]; 0.04 mg oral ingestion): 16.7% | promotion ratio of the overall autonomic nerve activity [6, 11]: 195% | promotion ratio of the parasympathetic nerve activity [6, 11]: 249% | ratio of those who exhibited promotion (more than 200% of the previous value of the parasympathetic nerve activity) ([6]; 0.2 mg oral ingestion): 66.7% | mean promotion ratio of the overall autonomic nerve activity ([6]; 0.2 mg oral ingestion): 329% | mean promotion ratio of the parasympathetic nerve activity ([6]; 0.2 mg oral ingestion): 436% | ratio of those who exhibited promotion (more than 200% of the previous value of the parasympathetic nerve activity) ([6]; 1 mg oral ingestion): 37.5% | mean promotion ratio of the overall autonomic nerve activity ([6]; 1 mg oral ingestion): 190% | mean promotion ratio of the parasympathetic nerve activity ([6]; 1 mg oral ingestion): 259% | ratio of those who exhibited promotion (more than 200% of the previous value of the parasympathetic nerve activity) ([6]; 5 mg oral ingestion): 25.0% | mean promotion ratio of the overall autonomic nerve activity ([6]; 5 mg oral ingestion): 410% | mean promotion ratio of the parasympathetic nerve activity ([6]; 5 mg oral ingestion): 472% | ratio of those who exhibited promotion (more than 200% of the previous value of the parasympathetic nerve activity) ([6]; 25 mg oral ingestion): 0% | suppression rate of efferent neural activity of the sympathetic nerve renal branches [7, 8]: 29.7% | suppression rate of efferent neural activity of the sympathetic nerve renal branches [7, 9]: 32.8% | suppression rate of efferent neural activity of the sympathetic nerve renal branches [7, 10]: 28.0%

Reference: patent US20030065030A1, “Autonomic controlling agents and health drinks and foods” (priority 2001, published 2003)
